Measured values reported in US20250085201A1, “SUBSTITUTED QUADRUPOLAR FLUORESCENT DYES FOR LIVE CELL IMAGING” (Northwestern University, priority 2023, published 2025).

Columns and labels:
[1] = tested on: MCF-7 breast cancer cells; assay: Cell uptake and live cell laser scanning confocal imaging; type: cell-based; conditions: for uptake and intracellular distribution (confocal images): 24 h, λex=405 nm
Procedure: Because of its low cytotoxicity and emission (FIG. 3) in the green region (548 nm) at micromolar concentrations (ΦF=0.15), water-soluble 9·4Cl was subjected to live cell imaging with MCF-7 breast cancer cells. Living cells treated with the tetracationic cyclophane at 50 and 20 μM (FIG. 7) and as low as 1 μM (FIG. 10) concentrations, were imaged by laser scanning confocal microscopy.
MCF-7 Breast cancer cells were grown in standard Dulbecco's modified eagle medium (DMEM), which was supplemented with 10% Fetal Bovine Serum (FBS) and 1% Penicillin-Streptomycin (Corning). Cells were seeded into an 8-well imaging coverglass chamber (manufacturer-CellVis) or multiwell plate using phenol red free DMEM about 24 h prior to treatment. Dye 9·4Cl was resuspended in deionized H2O before being diluted to their final concentrations in the cell culture media. Cells were treated with the dye for 24 h prior to imaging. Uptake assays were carried out at concentrations from 1-50 μM, including a vehicle control (untreated). For the cell growth assays, cells were treated with the dye for 24 h at a range of concentrations from 0.1-50 μM.
Confocal imaging was performed on a Leica SP8 laser scanning confocal microscope on a DMi8 […] stand with LAS X software in the Biological Imaging Facility (BIF) at Northwestern University. Uptake images were taken with a 63×/1.4 NA objective, scanning at a zoom of two with a pinhole of one Airy unit (AU) at 600 Hz with a galvo scanner and line averaging of two. Images were 92.35×92.35 μm (1024×1024) with 10 slices in the z direction with a step size of 0.3 μm (total stack volume 3.0 μm). A single excitation wavelength (405 nm) was used at a power of approximately 14 μW. For the emission collection, a Leica spectral Hybrid (HyD) detector set to collect a wavelength range of 500-650 nm (with a gain of 24%) was used. A transmitted light image was also collected simultaneously using the timeline photomultiplier (TL-PMT). Images were processed with FIJI/ImageJ (NIH) and settings were kept consistent throughout the series of images. Images presented are maximum intensity projections.

[2] = Transient absorption (fsTA/nsTA) and time-resolved fluorescence spectroscopy; type: physicochemical; conditions: in H2O
[3] = Absolute fluorescence quantum yield (integrating sphere); type: physicochemical; conditions: 414 nm excitation
[4] = Steady-state UV/Vis absorption and fluorescence emission spectra; type: physicochemical; conditions: micromolar concentrations
Procedure: Fluorescent dyes 1-6, 7·2PF6, 8·2PF6, 9·4PF6 and 9·4Cl were dissolved in THF (1-5), MeCN (6, 7·2PF6, 8·2PF6 and 9.4PF6) and H2O (9.4Cl), respectively, to afford 10 μM solutions prior to spectroscopic analysis. For comparison, their normalized (i) UV/Vis absorption (FIG. 2) and (ii) the fluorescence emission (FIG. 3) spectra of quadrupolar dyes are overlayed, displaying a large range of S1 absorbance and emission maxima, which rely highly on their quadrupolarity that is correlated to the electron-deficiency of the ARs.
(§1) Fluorescent dyes were dissolved in the appropriate solvents to afford 1 mM solutions prior to spectroscopic analysis. A portion of 30 μL of a 1 mM solution was diluted by adding a selected solvent to a sample with a total volume of 3000 μL, affording a 1×10^−5 M solution. UV/Vis Absorption spectra were recorded in glass cuvettes on a UV-3600 Shimadzu spectrophotometer. Steady-state emission spectra were acquired in quartz cuvettes with optical path-lengths of 10 mm containing the solution being analyzed using a HORIBA Fluoromax4 spectrofluorometer, which was equipped with an integrating sphere for determining the absolute photoluminescence quantum yield.

[5] = Absolute fluorescence quantum yield (integrating sphere); type: physicochemical; conditions: in H2O
Procedure: as §1
Steady-state and time-resolved emission spectra for dyes 1-6, 7·2PF6 and 9·4PF6 were acquired using a HORIBA Fluorolog-3 spectrofluorometer, equipped with a time-correlated single photon counting (TCSPC) module (diode laser excitation at λ=375 nm) and an integrating sphere, which was used for absolute photo-luminescence quantum yield determinations. Picosecond time-resolved fluorescence measurements were recorded using a commercial direct-diode-pumped 100 kHz amplifier (Spirit 1040-HE, Spectra-Physics), producing a fundamental beam of 1040 nm (350 fs, 12 W) which was used to pump a non-collinear optical parametric amplifier (Spirit-NOPA, SpectraPhysics) capable of delivering tunable, high-repetition-rate pulses with pulse widths as short as sub-20 fs. Dyes 1-6, 7·2PF6 and 9·4PF6 were excited with 350 nm, 2 nJ laser pulses. Fluorescence was detected using a Hamamatsu C4780 Streakscope as previously described in the literature. Samples were prepared in 2-mm quartz cuvettes. All data were acquired in the single-photon-counting mode using the Hamamatsu HPD-TA software. The temporal resolution was approximately 2% of the sweep window. Single wavelength kinetic analysis was performed using a nonlinear least-squares fit to a sum of exponentials convoluted with an instrument response function. Visible and near-infrared femtosecond and nanosecond transient absorption (fsTA and nsTA, respectively) spectroscopies were performed following descriptions already recorded in the literature. The 330 nm, ˜100 fs pump pulses were generated at 1 μJ per pulse using a commercial collinear optical parametric amplifier (TOPAS-Prime, Light-Conversion, Ltd.); 414-nm pump pulses were obtained by second-harmonic generation of the 828 nm fundamental. The pump polarization was randomized using a commercial depolarizer (DPU-25-A, Thorlabs, Inc.) to eliminate any orientational dynamics resulting from the experiment. Spectra were collected on commercial spectrometers (customized Ultrafast Systems Helios and EOS spectrometers, for fsTA and nsTA, respectively) for each time window. All samples were stirred to avoid localized heating or degradation effects. The optical density was maintained at 0.6 for all samples.
Steady-state and time-resolved emission spectra for dyes 7·2PF6 and 9·4PF6 were acquired using a HORIBA Fluorolog-3 spectrofluorometer, equipped with a time-correlated single photon counting (TCSPC) module (diode laser excitation at =375 nm) and an integrating sphere, which was used for absolute photo-luminescence quantum yield determinations. Picosecond time-resolved fluorescence measurements were recorded using a commercial direct-diode-pumped 100 kHz amplifier (Spirit 1040-HE, Spectra-Physics), producing a fundamental beam of 1040 nm (350 fs, 12 W) which was used to pump a non-collinear optical parametric amplifier (Spirit-NOPA, SpectraPhysics) capable of delivering tunable, high-repetition-rate pulses with pulse widths as short as sub-20 fs. The samples 7·2PF6 and 9·4PF6 were excited with […], 2 nJ laser pulses. Fluorescence was detected using a Hamamatsu C4780 Streakscope as previously described in the literature.^71 Samples were prepared in 2-mm quartz cuvettes. All data were acquired in the single-photon-counting mode using the Hamamatsu HPD-TA software. […]

COc1cc2c(OC)cc1-c1cc[n+](cc1)Cc1ccc(cc1)C[n+]1ccc(cc1)-c1cc(OC)c(cc1OC)-c1cc[n+](cc1)Cc1ccc(cc1)C[n+]1ccc-2cc1 [9·4Cl]
uptake and intracellular distribution (confocal images) ([1]; 50 μM and 10 μM, emission 500-650 nm): taken up by living cells and concentrated in intracellular compartments | uptake and intracellular distribution (confocal images) ([1]; MCF-7, 1 μM, emission 500-650 nm): taken up by living cells and concentrated in intracellular compartments | fluorescence in cells ([1]; MCF-7, 405 nm laser excitation, emission 500-650 nm): fluoresces brightly in cells | cell uptake ([1]; MCF-7 cells, 1-50 μM): readily taken up by cells | cell uptake at low treatment concentrations ([1]; as low as 1 μM): readily taken up by cells | CT state lifetime [2]: 2.69±0.02 ns | rate constant k1 from TA data [2]: (1.4 ± 0.3 ps)^−1 (ps)^−1 | non-radiative decay rate constant kNR ([2]; kNR = kobs(1 − ΦF)): (3.16 ± 0.02 ns)^−1 (ns)^−1 | ΦF in the solid-state (powder) [3]: 0.016±0.005 | emission in the green region [4]: 548 nm | Quantum Yield (ΦF) [5]: 0.15
